Results reported in patent US20190022039A1, “COMPOUND HAVING ENHANCING ACTIVITY FOR GLUCAGON-LIKE PEPTIDE-1 RECEPTOR ACTIONS” (AJINOMOTO CO., INC., priority 2016, published 2019).

Target: T1, human GLP-1R (Homo sapiens, UniProt P43220)
T1 construct: expressed in transfected cells; host or cells: PEAK RAPID-derived Gα15-trans48 LD stably expressing cells (PRG48), transiently transfected with Lipofectamine 2000
Assay: GLP-1 receptor in vitro calcium assay (intracellular free calcium concentration change induced via GLP-1 receptor)
Format: cell-based
Settings: for EC50: PRG48 cells transfected with human GLP-1R, compound added with 250 pM GLP-1, Ca2+ response ΔF/F, read-out: Ca EC50 value; for GLP-1 receptor action enhancing activity (vs BETP): intensity compared to BETP, activity of BETP as 1
Experimental: The supernatant was removed by centrifugation (1,200 rpm, 3 min), and the cells were suspended at 4×10^6 cells/mL in 5% FBS DMEM/Ham's F-12. 1.0 mL thereof was seeded in a 15 cm dish and cultured (37° C., 5% CO2) overnight. The next day, the medium of the cultured PRG48 cells was replaced with 5% FBS DMEM/Ham's F-12 medium (30 mL), human GLP-1R gene mixture solution (GLP-1R/pc.DNA3.1(+) 60 μg) prepared using 6.0 mL of Opti-MEM (invitrogen) and 120 μL of Lipofectamin 2000 (invitrogen) was slowly added to the cells, and cultured (37° C., 5% CO2) for 6 hr to introduce the gene. […] The cells were counted, suspended at 0.5×10^6 cells/mL in 5% FBS DMEM/Ham's F-12 medium, and seeded in each well of D-Lysine coat 96 well plate (BD Bioscience) at 7.0×10^4 cells. After static adhesion at room temperature for 1 hr, the cells were cultured overnight (37° C., 5% CO2). The medium in the Cultured 96 well was entirely discarded, 150 μL of intracellular calcium measurement staining solution Calcium assay kit Express (Molecular Device) diluted 80-fold with Assay buffer (20 mM HEPES, 146 mM NaCl, 1 mM MgSO4, 1.39 mM glucose, 1 mM CaCl2, 2.5 mM Probenecid, 0.05% Casein Enzymatic Hydrolysate) was added, and the mixture was stood at 37° C. for 30 min, and then at room temperature for 45 min to perform staining. After staining, 250 pM GLP-1 and the compound were added and Ca^2+ response was observed by using FDSSμCELL (Hamamatsu Photonics K.K.). Each evaluation compound was dissolved in DMSO, further diluted with Assay buffer and used.
For evaluation, the fluorescence values (Ex480:Em540) before and after addition were measured, and changes in the intracellular free calcium concentration produced via GLP-1R receptor by the addition were quantitatively examined. For the measurement and analysis of the fluorescence values, a soft (FDSS7000EX) attached to the FDSSμCELL was used, and ΔF/F value ((maximum fluorescence value after stimulation−minimum fluorescence value after stimulation)/fluorescence value before stimulation) was calculated. Using the obtained ΔF/F values, EC50 value was calculated by Prism5.

T1 sequence (P43220 24-463): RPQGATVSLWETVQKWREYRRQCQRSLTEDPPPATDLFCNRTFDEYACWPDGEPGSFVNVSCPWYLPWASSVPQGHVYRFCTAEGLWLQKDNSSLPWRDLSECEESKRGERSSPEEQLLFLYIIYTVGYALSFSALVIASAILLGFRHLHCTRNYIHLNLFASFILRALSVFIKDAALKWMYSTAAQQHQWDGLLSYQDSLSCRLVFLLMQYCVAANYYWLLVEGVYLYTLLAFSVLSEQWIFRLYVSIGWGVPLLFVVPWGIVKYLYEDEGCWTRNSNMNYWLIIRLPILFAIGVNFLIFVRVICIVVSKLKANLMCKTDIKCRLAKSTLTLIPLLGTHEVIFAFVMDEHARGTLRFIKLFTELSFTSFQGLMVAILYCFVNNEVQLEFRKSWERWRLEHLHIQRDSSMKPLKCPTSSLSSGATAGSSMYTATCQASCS

Row | SMILES | EC50 | GLP-1 receptor action enhancing activity (vs BETP)
1 | CCCCC(CC)CNC(=O)[C@@H](Cc1ccc(Cl)cc1)NC(=O)Nc1ccc(NS(=O)(=O)c2ccc(C)cc2)cc1 (stereo partly shown) [Compound 39] | 23 nM | 
2 | CCCCC(CC)CNC(=O)[C@@H](Cc1c[nH]c2ccccc12)NC(=O)Nc1ccc(NS(=O)(=O)c2ccc(C)cc2)cc1 (stereo partly shown) [Compound 40] | 130 nM | 199
3 | Cc1ccc(S(=O)(=O)Nc2ccc(NC(=O)N[C@H](CC3CCCCC3)C(=O)NC3CCCCCC3)cc2)cc1 [Compound 41] | 76 nM | 333
4 | Cc1ccc(S(=O)(=O)Nc2ccc(NC(=O)N[C@H](Cc3ccc(Cl)cc3)C(=O)NC3CCCCCC3)cc2)cc1 [Compound 42] | 92 nM | 
5 | Cc1ccc(S(=O)(=O)Nc2ccc(NC(=O)N[C@H](Cc3c[nH]c4ccccc34)C(=O)NC3CCCCCC3)cc2)cc1 [Compound 43] | 160 nM | 160
6 | Cc1ccc(S(=O)(=O)Nc2ccc(NC(=O)N[C@H](CC(C)C)C(=O)NC3CCCCCC3)cc2)cc1 [Compound 44] | 1300 nM | 19
7 | Cc1ccc(S(=O)(=O)Nc2ccc(NC(=O)N[C@H](CC3CCCCC3)C(=O)NCCC3CCCCC3)cc2)cc1 [Compound 45] | 22 nM | 1149
8 | Cc1ccc(S(=O)(=O)Nc2ccc(NC(=O)N[C@H](Cc3ccc(Cl)cc3)C(=O)NCCC3CCCCC3)cc2)cc1 [Compound 46] | 16 nM | 
9 | Cc1ccc(S(=O)(=O)Nc2ccc(NC(=O)N[C@H](Cc3c[nH]c4ccccc34)C(=O)NCCC3CCCCC3)cc2)cc1 [Compound 47] | 120 nM | 208
10 | Cc1ccc(S(=O)(=O)Nc2ccc(NC(=O)N[C@H](CC(C)C)C(=O)NCCC3CCCCC3)cc2)cc1 [Compound 48] | 280 nM | 92
11 | CCCCC(CC)CNC(=O)[C@H](Cc1c[nH]c2ccccc12)NC(=O)Nc1ccc(NS(=O)(=O)c2ccc(C(C)(C)C)cc2)cc1 (stereo partly shown) [Compound 49] | 10 nM | 2534
12 | CCCCC(CC)CNC(=O)[C@H](CC(C)C)NC(=O)Nc1ccc(NS(=O)(=O)c2ccc(C(C)(C)C)cc2)cc1 (stereo partly shown) [Compound 51] | 9 nM | 2786
13 | Cc1ccc(S(=O)(=O)Nc2ccc(NC(=O)N[C@H](Cc3ccccc3)C(=O)NC3CCCCCCC3)cc2)cc1 [Compound 52] | 170 nM | 144
14 | CCCCCCN(C)C(=O)[C@@H](Cc1ccccc1)NC(=O)Nc1ccc(NS(=O)(=O)c2ccc(C)cc2)cc1 [Compound 53] | 280 nM | 91
15 | CCCCCC(C)NC(=O)[C@@H](Cc1ccccc1)NC(=O)Nc1ccc(NS(=O)(=O)c2ccc(C)cc2)cc1 (stereo partly shown) [Compound 54] | 180 nM | 137
16 | Cc1ccc(S(=O)(=O)Nc2ccc(NC(=O)N[C@H](Cc3ccccc3)C(=O)NC(C)CCCC(C)C)cc2)cc1 (stereo partly shown) [Compound 55] | 45 nM | 558
17 | CC(C)CCCC(C)NC(=O)[C@H](CC1CCCCC1)NC(=O)Nc1ccc(NS(=O)(=O)c2ccc(C(C)(C)C)cc2)cc1 (stereo partly shown) [Compound 56] | 3.8 nM | 6569
18 | CCCCCCCCNC(=O)[C@H](CC1CCCCC1)NC(=O)Nc1ccc(NS(=O)(=O)c2ccc(C(C)(C)C)cc2)cc1 [Compound 57] | 3.4 nM | 7462
19 | CC(C)CCCC(C)NC(=O)[C@H](Cc1ccc(Cl)cc1)NC(=O)Nc1ccc(NS(=O)(=O)c2ccc(C(C)(C)C)cc2)cc1 (stereo partly shown) [Compound 58] | 4.6 nM | 
20 | CCCCCCCCNC(=O)[C@H](Cc1ccc(Cl)cc1)NC(=O)Nc1ccc(NS(=O)(=O)c2ccc(C(C)(C)C)cc2)cc1 [Compound 59] | 5.7 nM | 
21 | Cc1ccc(S(=O)(=O)Nc2ccc(NC(=O)N[C@H](Cc3ccccc3)C(=O)NC[C@H]3CCC4CC3C4(C)C)cc2)cc1 (stereo partly shown) [Compound 60] | 45 nM | 560

Row | SMILES | EC50 | GLP-1 receptor action enhancing activity (vs BETP)
22 | Cc1ccc(S(=O)(=O)Nc2ccc(NC(=O)N[C@H](Cc3ccccc3)C(=O)NC(C)(C)C34CC5CC(CC(C5)C3)C4)cc2)cc1 [Compound 61] | 15 nM | 1710
23 | Cc1ccc(S(=O)(=O)Nc2ccc(NC(=O)N[C@H](Cc3ccccc3)C(=O)OC(C)(C)C)cc2)cc1 [Compound 62, tert-butyl (2R)-3-phenyl-2-{[4-(p-tolylsulfonylamino)phenyl]carbamoylamino}propanoate] | 930 nM | 27
24 | Cc1ccc(S(=O)(=O)Nc2ccc(NC(=O)N[C@@H](Cc3ccccc3)C(=O)OC(C)(C)C)cc2)cc1 [Compound 63] | 1900 nM | 13
25 | Cc1ccc(S(=O)(=O)Nc2ccc(NC(=O)N[C@H](CC(C)C)C(=O)OC(C)(C)C)cc2)cc1 [Compound 64] | 1600 nM | 15
26 | Cc1ccc(S(=O)(=O)Nc2ccc(NC(=O)N[C@@H](CC(C)C)C(=O)OC(C)(C)C)cc2)cc1 [Compound 65] | 2000 nM | 13
27 | Cc1ccc(S(=O)(=O)Nc2ccc(NC(=O)N[C@@H](Cc3ccc(OC(C)(C)C)cc3)C(=O)OC(C)(C)C)cc2)cc1 [Compound 66] | 740 nM | 34
28 | Cc1ccc(S(=O)(=O)Nc2ccc(NC(=O)N[C@@H](Cc3c[nH]c4ccccc34)C(=O)OC(C)(C)C)cc2)cc1 [Compound 67] | 660 nM | 38
29 | Cc1ccc(S(=O)(=O)Nc2ccc(NC(=S)N[C@H](Cc3ccccc3)C(=O)OC(C)(C)C)cc2)cc1 [Compound 68] | 1200 nM | 22
30 | CCCOc1ccc(-c2noc([C@H](Cc3ccccc3)NC(=O)Nc3ccc(NS(=O)(=O)c4ccc(C)cc4)cc3)n2)cc1 [Compound 69] | 24 nM | 1068
31 | Cc1ccc(S(=O)(=O)Nc2ccc(NC(=O)N[C@H](Cc3ccccc3)c3nc(C(C)(C)C)no3)cc2)cc1 [Compound 70] | 1300 nM | 20
32 | CCCc1ccc(S(=O)(=O)Nc2ccc(NC(=O)N[C@@H](Cc3ccccc3)C(=O)OC(C)(C)C)cc2)cc1 [Compound 71] | 400 nM | 64
33 | CC(C)c1ccc(S(=O)(=O)Nc2ccc(NC(=O)N[C@@H](Cc3ccccc3)C(=O)OC(C)(C)C)cc2)cc1 [Compound 72] | 680 nM | 37
34 | CC(C)(C)OC(=O)[C@H](Cc1ccccc1)NC(=O)Nc1ccc(NS(=O)(=O)c2ccc(C(C)(C)C)cc2)cc1 [Compound 73] | 310 nM | 83
35 | CC(C)(C)OC(=O)[C@H](Cc1ccccc1)NC(=O)Nc1ccc(NS(=O)(=O)Cc2ccccc2)cc1 [Compound 74] | 1900 nM | 14
36 | CCc1ccc(S(=O)(=O)Nc2ccc(NC(=O)N[C@@H](Cc3ccccc3)C(=O)OC(C)(C)C)cc2)cc1 [Compound 75] | 620 nM | 41
37 | Cc1ccc(S(=O)(=O)Nc2ccc(NC(=O)N[C@H](CC(=O)OC(C)(C)C)Cc3ccccc3)cc2)cc1 [Compound 76] | 1600 nM | 16
38 | Cc1cccc(S(=O)(=O)Nc2ccc(NC(=O)N[C@@H](Cc3ccccc3)C(=O)OC(C)(C)C)cc2)c1 [Compound 77] | 1600 nM | 16
39 | Cc1ccccc1S(=O)(=O)Nc1ccc(NC(=O)N[C@@H](Cc2ccccc2)C(=O)OC(C)(C)C)cc1 [Compound 78] | 1700 nM | 15
40 | Cc1ccc(S(=O)(=O)Nc2cccc(NC(=O)N[C@@H](Cc3ccccc3)C(=O)OC(C)(C)C)c2)cc1 [Compound 79] | 1500 nM | 17
41 | Cc1cc(C)c(S(=O)(=O)Nc2ccc(NC(=O)N[C@@H](Cc3ccccc3)C(=O)OC(C)(C)C)cc2)c(C)c1 [Compound 80] | 380 nM | 67
42 | CC(C)(C)OC(=O)[C@H](Cc1ccccc1)NC(=O)Nc1ccc(NS(=O)(=O)c2ccc(C(F)(F)F)cc2)cc1 [Compound 81] | 1000 nM | 24
